Measurements from patent US10166229B2, “Compounds and methods for the treatment of cancer” (The Board of Trustees of the University of Illinois, priority 2005, dated 2019).
“Also recorded” adds a separate entry of the source.

Legend:
[1] = system: mitochondrial membrane depolarization in HL-60 cells; experiment: Mitochondrial membrane potential (JC-9) in HL-60; format: cell-based, human
Method: The cells were incubated for various times, and the cells then were harvested by centrifugation. The cells were washed in PBS and resuspended in 1 mL of PBS. 10 μg of the JC-9 dye was added and the cells were incubated at room temperature for 10 minutes protected from light. The cells were then washed two times with PBS and brought up in 500 μL PBS. The fluorescent intensity of each cell was determined by flow cytometry at 525 nm (green channel) and 675 nm (red channel). 50,000 cells were analyzed in each experiment. The shift in the red channel was then used to determine the amount of mitochondrial membrane depolarization.

procaspase-3 = procaspase-3 (Homo sapiens (Human), UniProt P42574); experiment: Western blot of in vitro procaspase-3 activation by DX compounds; format: biochemical; details: 50 micromolar compound, about 35 nanomolar procaspase-3, 8 hr
procaspase-3, sequence (P42574 whole entry): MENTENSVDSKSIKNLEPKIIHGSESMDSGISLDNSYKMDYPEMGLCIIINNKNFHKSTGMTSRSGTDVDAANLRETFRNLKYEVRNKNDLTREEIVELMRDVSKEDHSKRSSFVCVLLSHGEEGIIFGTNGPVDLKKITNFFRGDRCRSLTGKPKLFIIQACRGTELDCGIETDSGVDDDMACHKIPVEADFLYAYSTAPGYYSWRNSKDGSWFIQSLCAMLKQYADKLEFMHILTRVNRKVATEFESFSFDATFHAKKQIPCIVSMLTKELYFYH
Method: Certain compounds were also tested for the ability to effect in vitro activation of procaspase-3.

[2] = system: cellular PARP activity in HL-60 cells; experiment: In vivo PARP activity assay (PARP cleavage) in HL-60; format: cell-based, human; details: HL-60, 100 μM PAC-1
Method: In vivo determination of PARP cleavage. The amount of PARP cleavage was determined by using an in vivo PARP activity assay. To accomplish this, 50 μL of media containing 200 μM NAD^+ was added to the control wells of a 96-well plate. […] 25 μL of HL-60 cells at a concentration of 5×10^6 cells/mL were then added to each well. The cells were incubated for various times and then spun at 1000×g for 5 minutes. The cell media was removed and replaced with 50 μL Lysing PARP Buffer (50 mM Tris, 10 mM MgCl2, pH 8.0, 1% Triton X-100) containing 25 mM H2O2. The plate was then incubated for 60 minutes at 37° C. To determine the amount of NAD^+ still present, 20 μL of 2 M KOH and 20 μL of a 20% (v/v) acetophenone (in ethanol) solution was added to each well of the 96-well plate. The plate was then incubated for 10 minutes at 4° C. 90 μL of an 88% (v/v) formic acid solution was added to each well of the 96-well plate. […] The plate was allowed to cool and then read on a Criterion Analyst AD (Molecular Devices, Sunnyvale, Calif.) with an excitation of 360 nm, an emission of 445 nm and a 400 nm cutoff dichroic mirror. The fluorophore was excited using a 1000 W continuous lamp for 1.6×10^5 μs with 5 reads performed per well. The number of moles of NAD^+ cleaved per minute was then calculated and the remaining PARP activity as compared to control wells was determined.

[3] = system: white blood cells from bone marrow, Hs888Lu, MCF-10A, Hs578Bst; experiment: Cell death in four non-cancerous cell types; format: cell-based
[4] = Plasma PAC-1 content after pellet implantation; format: in vivo, mice; details: female, athymic BALB/c (nude), mouse, other: implantation of a pellet of PAC-1 and cholesterol, 5 mg pellet, after the 54 day experiment
Method: PAC-1 was evaluated in a mouse xenograft model using a slow release mode of drug delivery. In this model, subcutaneous tumors were formed in ovariectomized female athymic BALB/c (nude) mice using the ACHN (renal cancer) cell line. […] Tumor sizes were monitored for about 8 weeks. […] After the mice were sacrificed, plasma samples were taken from each mouse, and the PAC-1 content of each was analyzed.

[5] = system: NCI-H226 lung cancer cell line; experiment: Cell death IC50 (MTS) in NCI-H226; format: cell-based; details: Homo sapiens, NCI-H226, 72 h, read-out: IC50 for cell death induction, NCI-H226
HL-60 cells [6] = experiment: Apoptosis induction assay in HL-60 cells, 72 hrs (Table 6); format: cell-based; details: Homo sapiens
Method: Compounds DX1-DX17 were tested using the HL-60 cell line for the ability to effect apoptosis, and IC50 values were determined. Activity levels of compounds from assays of 72 hrs duration with HL-60 cells are shown in Table 6 and along with structures in FIG. 12.

[7] = system: primary colon cancer cells; experiment: Cell death in primary cancerous cells from resected colon tumors; format: cell-based, human
[8] = system: NCI-H226 (lung cancer) cells injected i.v.; experiment: NCI-H226 i.v. injection lung model, oral gavage; format: in vivo, mice; details: 100 mg/kg oral gavage days 1-4 and 7-11, 28 days
PARP-1 = PARP-1 (Homo sapiens (Human), UniProt P09874); experiment: Control experiment: direct inhibition of PARP-1 enzymatic activity; format: biochemical; details: control experiments
PARP-1, sequence (P09874 whole entry, species assumed): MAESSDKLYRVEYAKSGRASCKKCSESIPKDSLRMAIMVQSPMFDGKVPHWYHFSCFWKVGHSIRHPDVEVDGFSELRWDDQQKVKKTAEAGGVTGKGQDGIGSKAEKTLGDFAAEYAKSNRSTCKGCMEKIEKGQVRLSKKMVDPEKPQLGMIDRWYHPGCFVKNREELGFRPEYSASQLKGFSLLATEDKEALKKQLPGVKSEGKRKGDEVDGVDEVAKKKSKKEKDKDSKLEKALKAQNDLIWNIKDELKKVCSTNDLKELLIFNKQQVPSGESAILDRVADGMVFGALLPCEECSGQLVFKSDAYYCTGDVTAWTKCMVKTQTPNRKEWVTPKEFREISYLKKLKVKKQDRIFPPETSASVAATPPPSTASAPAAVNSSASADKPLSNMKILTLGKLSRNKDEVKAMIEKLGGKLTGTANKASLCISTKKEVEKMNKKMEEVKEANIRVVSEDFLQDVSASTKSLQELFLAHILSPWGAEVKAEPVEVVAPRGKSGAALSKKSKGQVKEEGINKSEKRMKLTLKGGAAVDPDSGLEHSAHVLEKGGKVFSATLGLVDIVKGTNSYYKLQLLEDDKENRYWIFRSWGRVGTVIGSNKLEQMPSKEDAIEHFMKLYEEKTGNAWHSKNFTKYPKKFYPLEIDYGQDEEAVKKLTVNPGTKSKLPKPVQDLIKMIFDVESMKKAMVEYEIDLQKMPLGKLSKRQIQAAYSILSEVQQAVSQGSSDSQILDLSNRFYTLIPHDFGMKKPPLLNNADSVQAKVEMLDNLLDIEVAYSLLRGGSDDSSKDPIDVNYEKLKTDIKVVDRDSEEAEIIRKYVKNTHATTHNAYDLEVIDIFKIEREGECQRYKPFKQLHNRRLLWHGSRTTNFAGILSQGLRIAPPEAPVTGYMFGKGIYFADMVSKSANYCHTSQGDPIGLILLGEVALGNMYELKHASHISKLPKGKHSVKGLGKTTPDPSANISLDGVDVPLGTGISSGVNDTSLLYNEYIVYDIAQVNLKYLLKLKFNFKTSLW

[9] = system: MCF-7, breast cancer cells; experiment: Cell death IC50 in MCF-7; details: Homo sapiens, MCF7, read-out: IC50 for death induction, MCF-7
Method: Determination of IC50 values in various cell lines. 50 μL of media containing various concentrations of PAC-1 or etoposide was added to each well of a 96-well plate except control wells, which contained only DMSO. […] The plates were then incubated at 37° C. for approximately one hour until the colored product formed.

HL-60 cells [10] = experiment: Cell death inhibition by z-vad-fmk; format: cell-based, human
Method: Cell death inhibition by z-vad-fmk. 100 μL HL-60 cells at a concentration of 5×10^5 cells/mL were added to the wells of a 96-well plate. The cells were then incubated for 1 hour in the presence or absence of 100 μM z-vad-fmk, a cell-permeable pan caspase inhibitor. […] The plates were incubated at 37° C. for approximately 45 minutes until the colored product formed.

HL-60 cells [11] = experiment: Cell death induction IC50 (MTS) in HL-60; format: cell-based, human
[12] = system: caspase-3 like activity in HL-60 cells; experiment: Caspase-3 like activity in HL-60 cells; format: cell-based, human; details: HL-60, 100 μM PAC-1
Method: In vivo determination of caspase-3 like activity. The amount of caspase-3 like protease activity was determined by the amount of Ac-DEVD-pNA (N-acetyl-ASP-Glu-Val-Asp-p-nitroanilide) (SEQ ID NO: 28) cleaved per minute by cell lysates. […] 50 μL of HL-60 cells at a concentration of 5×10^6 cells/mL were added to the plate and incubated for various times. After the incubation period, the plate was spun at 1000×g for 5 minutes to pellet the cells. The cells were then washed with 100 μL of PBS and resuspended in 150 μL of ice cold Caspase Assay Buffer. Each well was then sonicated to lyse the cells. 90 μL of cell lysate was transferred from each well into a new plate. Ac-DEVD-pNA (SEQ ID NO: 28) was added into each well to give a final concentration of 200 μM. […] The slope of the linear portion for each well was determined and the amount of Ac-DEVD-pNA (SEQ ID NO: 28) cleaved per minute was calculated.

C=CCc1cccc(/C=N/NC(=O)CN2CCN(Cc3ccccc3)CC2)c1O [PAC-1]
mitochondrial membrane depolarization [1]: causes mitochondrial membrane depolarization
in vitro activation of procaspase-3 (Western blot) relative to control (procaspase-3): substantial activity levels
cellular PARP activity / PARP-1 cleavage [2]: rapidly reduced; also recorded: induces cleavage of the caspase substrate PARP-1; also recorded: rapid decrease
IC50 [3]: 3200 to 8500 nM
concentration at 54 day [4]: 5 nM
IC50 [5]: 350 nM
IC50 (HL-60 cells [6]): 2800 nM
sensitivity of cells in cancerous tissue in comparison with normal tissue ([7]; FIG. 6B, Patient 3): greater than 80 fold
IC50 ([7]; Homo sapiens, read-out: IC50 in cancer cells from patient 17, patient 17): 7 nM
sensitivity of cancer cells versus cells from adjacent normal tissue ([7]; patient 17): over 700 fold
lung tumor mass, NCI-H226 i.v. injection model [8]: clear difference; also recorded: almost no visible gray matter
direct inhibition of enzymatic activity of PARP-1 (PARP-1): does not directly inhibit
IC50 [9]: > 75000 nM
toxicity in the presence of caspase inhibitor z-VAD-fmk (HL-60 cells [10]): abolished
cell death induction in cancer cells in culture (in words) (HL-60 cells [11]): induce death in cancer cells
IC50 (HL-60 cells [11]; Homo sapiens, HL-60, Table 3, read-out: IC50 (μM) for death induction in HL-60 cells): 0.92 µM
time to 50% activation of caspase-3-like activity [12]: over 2 hours
